Test results from patent US20250114460A1, “NOVEL PLK1 DEGRADATION INDUCING COMPOUND” (UPPTHERA, INC., priority 2021, published 2025).

Columns and labels:
Assay type in all cases: cell-based
NCI-H526 cell line = experiment: Cell viability assay for H526 cell (EZ-Cytox); conditions: Homo sapiens, NCI-H526, 120 h; H526 cells, 5 days, 3000 nM to 0.46 nM
Outline: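 Read-out was EZ-Cytox colorimetric absorbance at 450 nm, taken after brief plate shaking, with IC50 derived. Before reading, H526 cells had been cultured with test compound for 5 days.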

MRC-5 cell line = experiment: Cell viability assay for MRC-5 cell line (EZ-Cytox); conditions: Homo sapiens, MRC5, 120 h; MRC-5 normal cell line, 5 days, 10000 nM to 1.52 nM; N.D. = no cytotoxicity until 10 μM; read-out: Activity: IC50 value of Exemplary Compound to MRC-5 cell line
Method: 4. Cell Viability Assay for MRC-5 Cell Line
(1) Culture of MRC-5 Cell Line
Passage of cultured cells was maintained within P15.
(2) Treatment of Compounds of the Present Invention
Then, it was cultured in 37° C.
(3) Cytotoxicity Experiment
CO2 incubator for 4 hours.

PLK1 = molecular target: T1, PLK1 (Homo sapiens, UniProt P53350); experiment: Luciferase assay for PLK1 in HeLa LgBit (Plk1-HiBit KI) cell line; conditions: 300 nM compound, luminescence after 9 hours
T1 construct: endogenous in cells; host or cells: HeLa LgBit (Plk1-HiBit KI): HeLa stably expressing LgBit, with a CRISPR/Cas9 knock-in of HiBit at the endogenous PLK1 locus
Outline: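 Luminescence, followed in real time after adding compound at 300 nM and Endurazine substrate, is reported relative to DMSO-treated wells. Cells are a HeLa LgBit line with a Plk1-HiBit knock-in, synchronized by 2 mM thymidine for 24 h, released, and cultured 18 h before treatment.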

T1 sequence (P53350 whole entry): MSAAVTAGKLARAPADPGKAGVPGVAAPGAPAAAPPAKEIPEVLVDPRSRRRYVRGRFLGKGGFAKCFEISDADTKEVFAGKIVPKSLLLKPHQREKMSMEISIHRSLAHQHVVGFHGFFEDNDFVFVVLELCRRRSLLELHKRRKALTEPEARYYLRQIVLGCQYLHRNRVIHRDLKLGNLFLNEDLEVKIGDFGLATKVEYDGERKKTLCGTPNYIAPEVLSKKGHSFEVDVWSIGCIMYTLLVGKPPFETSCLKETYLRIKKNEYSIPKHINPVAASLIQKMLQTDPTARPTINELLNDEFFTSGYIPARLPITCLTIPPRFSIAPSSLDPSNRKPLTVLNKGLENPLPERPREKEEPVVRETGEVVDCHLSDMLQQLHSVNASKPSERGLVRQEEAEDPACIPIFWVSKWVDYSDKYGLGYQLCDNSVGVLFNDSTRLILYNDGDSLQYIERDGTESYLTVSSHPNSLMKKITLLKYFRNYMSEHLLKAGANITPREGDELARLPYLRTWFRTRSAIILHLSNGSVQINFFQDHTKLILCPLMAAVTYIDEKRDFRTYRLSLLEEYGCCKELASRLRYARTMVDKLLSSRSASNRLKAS

Compound | IC50 (NCI-H526 cell line) [µM] | IC50 (MRC-5 cell line) [µM] | Activity: ratio of the luminescense value of each Exemplary Compound treatment group to DMSO treatment group (PLK1)
COc1cc(C(=O)NCC2CCN(CCC3CCN(c4cccc5c4C(=O)N(C4CCC(=O)NC4=O)C5=O)C3)CC2)ccc1Nc1ncc2c(n1)N(C1CCCC1)CC(F)(F)C(=O)N2C (stereo not drawn) [Compound 50, 4-((9-cyclopentyl-7,7-difluoro-5-methyl-6-oxo-6,7,8,9-tetrahydro-5H-pyrimido[4,5-b][1,4]diazepin-2-yl)amino)-N-((1-(2-(1-(2-(2,6-dioxopiperidin-3-yl)-1,3-dioxoisoindolin-4-yl)pyrrolidin-3-yl)ethyl)piperidin-4-yl)methyl)-3-methoxybenzamide] | < 0.03 | 11.3 | ++ (++<0.6)
COc1cc(C(=O)NN2CCN(C3CCN(c4cccc5c4C(=O)N(C4CCC(=O)NC4=O)C5=O)C3)CC2)ccc1Nc1ncc2c(n1)N(C1CCCC1)CC(F)(F)C(=O)N2C (stereo not drawn) [Compound 51, 4-((9-cyclopentyl-7,7-difluoro-5-methyl-6-oxo-6,7,8,9-tetrahydro-5H-pyrimido[4,5-b][1,4]diazepin-2-yl)amino)-N-(4-(1-(2-(2,6-dioxopiperidin-3-yl)-1,3-dioxoisoindolin-4-yl)pyrrolidin-3-yl)piperazin-1-yl)-3-methoxybenzamide] | < 0.03 | > 10 | ++ (++<0.6)
COc1cc(C(=O)NC2CCN(CCC3CCCN(c4cccc5c4C(=O)N(C4CCC(=O)NC4=O)C5=O)C3)CC2)ccc1Nc1ncc2c(n1)N(C1CCCC1)CC(F)(F)C(=O)N2C (stereo not drawn) [Compound 55, 4-((9-cyclopentyl-7,7-difluoro-5-methyl-6-oxo-6,7,8,9-tetrahydro-5H-pyrimido[4,5-b][1,4]diazepin-2-yl)amino)-N-(1-(2-(1-(2-(2,6-dioxopiperidin-3-yl)-1,3-dioxoisoindolin-4-yl)piperidin-3-yl)ethyl)piperidin-4-yl)-3-methoxybenzamide] | < 0.1 | 3.81 | ++ (++<0.6)
COc1cc(C(=O)NN2CCN(C3CCN(c4ccc5c(c4)C(=O)N(C4CCC(=O)NC4=O)C5=O)C3)CC2)ccc1Nc1ncc2c(n1)N(C1CCCC1)CC(F)(F)C(=O)N2C (stereo not drawn) [Compound 56, 4-((9-cyclopentyl-7,7-difluoro-5-methyl-6-oxo-6,7,8,9-tetrahydro-5H-pyrimido[4,5-b][1,4]diazepin-2-yl)amino)-N-(4-(1-(2-(2,6-dioxopiperidin-3-yl)-1,3-dioxoisoindolin-5-yl)pyrrolidin-3-yl)piperazin-1-yl)-3-methoxybenzamide] | < 0.03 | > 10 | ++ (++<0.6)
COc1cc(C(=O)NN2CCN(C(=O)CCC3CCN(c4cccc5c4CN(C4CCC(=O)NC4=O)C5=O)CC3)CC2)ccc1Nc1ncc2c(n1)N(C(C)C)CC(F)(F)C(=O)N2C (stereo not drawn) [Compound 58, 4-((7,7-difluoro-9-isopropyl-5-methyl-6-oxo-6,7,8,9-tetrahydro-5H-pyrimido[4,5-b][1,4]diazepin-2-yl)amino)-N-(4-(3-(1-(2-(2,6-dioxopiperidin-3-yl)-1-oxoisoindolin-4-yl)piperidin-4-yl)propanoyl)piperazin-1-yl)-3-methoxybenzamide] | < 0.05 | > 10 | ++ (++<0.6)
COc1cc(C(=O)NN2CCN(C(=O)CCC3CCN(c4ccc5c(c4)CN(C4CCC(=O)NC4=O)C5=O)CC3)CC2)ccc1Nc1ncc2c(n1)N(C(C)C)CC(F)(F)C(=O)N2C (stereo not drawn) [Compound 59, 4-((7,7-difluoro-9-isopropyl-5-methyl-6-oxo-6,7,8,9-tetrahydro-5H-pyrimido[4,5-b][1,4]diazepin-2-yl)amino)-N-(4-(3-(1-(2-(2,6-dioxopiperidin-3-yl)-1-oxoisoindolin-5-yl)piperidin-4-yl)propanoyl)piperazin-1-yl)-3-methoxybenzamide] | < 0.03 | > 10 | ++ (++<0.6)
COc1cc(C(=O)NC2CCN(CCCN3CCN(c4cccc5c4C(=O)N(C4CCC(=O)NC4=O)C5=O)CC3)CC2)ccc1Nc1ncc2c(n1)N(C1CCCC1)CC(F)(F)C(=O)N2C (stereo not drawn) [Compound 60, 4-((9-cyclopentyl-7,7-difluoro-5-methyl-6-oxo-6,7,8,9-tetrahydro-5H-pyrimido[4,5-b][1,4]diazepin-2-yl)amino)-N-(1-(3-(4-(2-(2,6-dioxopiperidin-3-yl)-1,3-dioxoisoindolin-4-yl)piperazin-1-yl)propyl)piperidin-4-yl)-3-methoxybenzamide] | < 0.03 | 4.19 | ++ (++<0.6)
COc1cc(C(=O)NC2CCN(C(=O)CCC3CCN(c4cccc5c4C(=O)N(C4CCC(=O)NC4=O)C5=O)CC3)CC2)ccc1Nc1ncc2c(n1)N(C1CCCC1)CC(F)(F)C(=O)N2C (stereo not drawn) [Compound 62, 4-((9-cyclopentyl-7,7-difluoro-5-methyl-6-oxo-6,7,8,9-tetrahydro-5H-pyrimido[4,5-b][1,4]diazepin-2-yl)amino)-N-(1-(3-(1-(2-(2,6-dioxopiperidin-3-yl)-1,3-dioxoisoindolin-4-yl)piperidin-4-yl)propanoyl)piperidin-4-yl)-3-methoxybenzamide] | < 0.1 | > 10 | +++ (+++: <0.3)
COc1cc(C(=O)NC2CCN(C(=O)CCC3(O)CCN(c4cccc5c4C(=O)N(C4CCC(=O)NC4=O)C5=O)CC3)CC2)ccc1Nc1ncc2c(n1)N(C1CCCC1)CC(F)(F)C(=O)N2C (stereo not drawn) [Compound 63, 4-((9-cyclopentyl-7,7-difluoro-5-methyl-6-oxo-6,7,8,9-tetrahydro-5H-pyrimido[4,5-b][1,4]diazepin-2-yl)amino)-N-(1-(3-(1-(2-(2,6-dioxopiperidin-3-yl)-1,3-dioxoisoindolin-4-yl)-4-hydroxypiperidin-4-yl)propanoyl)piperidin-4-yl)-3-methoxybenzamide] | < 0.05 | > 10 | +++ (+++: <0.3)
COc1cc(C(=O)NC2CCN(C(=O)CCN3CCN(c4cccc5c4C(=O)N(C4CCC(=O)NC4=O)C5=O)CC3)CC2)ccc1Nc1ncc2c(n1)N(C(C)C)CC(F)(F)C(=O)N2C (stereo not drawn) [Compound 66, 4 4-((7,7-difluoro-9-isopropyl-5-methyl-6-oxo-6,7,8,9-tetrahydro-5H-pyrimido[4,5-b][1,4]diazepin-2-yl)amino)-N-(1-(3-(4-(2-(2,6-dioxopiperidin-3-yl)-1,3-dioxoisoindolin-4-yl)piperazin-1-yl)propanoyl)piperidin-4-yl)-3-methoxybenzamide] | < 0.05 | > 10 | +++ (+++: <0.3)
COc1cc(C(=O)NC2CCN(C(=O)CCN3CCN(c4cccc5c4C(=O)N(C4CCC(=O)NC4=O)C5=O)CC3)CC2)ccc1Nc1ncc2c(n1)N(C1CCC1)CC(F)(F)C(=O)N2C (stereo not drawn) [Compound 68, 4-((9-cyclobutyl-7,7-difluoro-5-methyl-6-oxo-6,7,8,9-tetrahydro-5H-pyrimido[4,5-b][1,4]diazepin-2-yl)amino)-N-(1-(3-(4-(2-(2,6-dioxopiperidin-3-yl)-1,3-dioxoisoindolin-4-yl)piperazin-1-yl)propanoyl)piperidin-4-yl)-3-methoxybenzamide] | < 0.1 | > 10 | +++ (+++: <0.3)
Cc1cc(C(=O)NC2CCN(C(=O)CCN3CCN(c4cccc5c4C(=O)N(C4CCC(=O)NC4=O)C5=O)CC3)CC2)ccc1Nc1ncc2c(n1)N(C1CCCC1)CC(F)(F)C(=O)N2C (stereo not drawn) [Compound 71, 4-((9-cyclopentyl-7,7-difluoro-5-methyl-6-oxo-6,7,8,9-tetrahydro-5H-pyrimido[4,5-b][1,4]diazepin-2-yl)amino)-N-(1-(3-(4-(2-(2,6-dioxopiperidin-3-yl)-1,3-dioxoisoindolin-4-yl)piperazin-1-yl)propanoyl)piperidin-4-yl)-3-methylbenzamide] | < 0.05 | > 10 | ++ (++<0.6)
CN1C(=O)C(F)(F)CN(C2CCCC2)c2nc(Nc3ccc(C(=O)NC4CCN(C(=O)CCN5CCN(c6cccc7c6C(=O)N(C6CCC(=O)NC6=O)C7=O)CC5)CC4)cc3O)ncc21 (stereo not drawn) [Compound 72, 4-((9-cyclopentyl-7,7-difluoro-5-methyl-6-oxo-6,7,8,9-tetrahydro-5H-pyrimido[4,5-b][1,4]diazepin-2-yl)amino)-N-(1-(3-(4-(2-(2,6-dioxopiperidin-3-yl)-1,3-dioxoisoindolin-4-yl)piperazin-1-yl)propanoyl)piperidin-4-yl)-3-hydroxybenzamide] | < 0.1 | > 10 | ++ (++<0.6)
